From article PMC8126654, “Novel Pan-Pim Kinase Inhibitors With Imidazopyridazine and Thiazolidinedione Structure Exert Potent Antitumor Activities” (Frontiers in Pharmacology, 2021)
Where two headings read alike, the source gives them in different places.

Key:
[1] = cited from earlier work
MV-4-11 xenograft model = assay: In vivo xenograft study, MV-4-11; design: species or system BALB/cSlc-nu/nu mice; settings: for TGI (tumor growth inhibition): intravenously every 4 days
Protocol: (§1) For evaluation of antitumor activity, MV-4-11 (5 × 10^6 cells) or PC-3 cells (2 × 10^6 cells) were injected subcutaneously in the inguinal region of 6-week-old male BALB/cSlc-nu/nu mice (Japan SLC, Inc., Shizuoka, Japan), with Matrigel (BD Biosciences, San Jose, CA, USA). When the average tumor volume (length × width^2 × 1/2) had reached 40 to 120 mm^3, animals were randomized into groups of seven mice for vehicle control group of MV-4-11 xenograft model or five mice for the other groups (day 1). Test compounds were injected into the tail vein every 4 days from day 1, with an administration volume of 10 ml/kg. Tumor volumes were measured 2 times per week and body weights of the mice were monitored on 2 or 3 times per week as an indicator of tolerability. On day 22 or 16, antitumor activity was evaluated by weighing tumor tissues. Tumor growth inhibition, TGI (%), was calculated according to formula (1 − T/C) × 100, where T and C are the mean tumor weights for the experimental and vehicle control groups, respectively. The differences between the mean tumor weights for comparing groups were analyzed using Dunnett’s test, where P < 0.05 was considered to be significant.

PC-3 xenograft model = assay: In vivo xenograft study, PC-3; design: species or system BALB/cSlc-nu/nu mice; settings: for TGI (tumor growth inhibition): intravenously every 4 days
Protocol: as §1

Pim-1 [2] = biological target: T1, Pim-1 (Homo sapiens, UniProt P11309); assay: In vitro Pim kinase activity assay (FRET-based Z'-LYTE), Pim-1; type: biochemical; settings: ATP 400 µM; read-out: IC50 values for enzyme activities, Pim-1
T1 construct: purchased Life Technologies; Thermo Fisher Scientific Inc
Protocol: (§2) The inhibition ratios of test compounds for Pim-1, 2 (Life Technologies; Thermo Fisher Scientific Inc., MA, United States), 3 (Merck KgaA), and FLT3 (Life Technologies; Thermo Fisher Scientific Inc., MA, United States) were determined using a modified FRET-based Z′-LYTE kinase assay kit (Invitrogen; Thermo Fisher Scientific Inc.). The Ser/Thr 7 peptide and Tyr-2 peptide were used as substrates for Pim kinases and FLT3, respectively. The reactions were carried out in a 384-well plate with a 10 µL reaction volume per well containing 1 µM substrates in 50 mM HEPES buffer with pH 7.5, 0.01% BRIJ-35, 10 mM MgCl2, 1 mM EGTA, and an appropriate amount of kinases (Pim-1: 0.03 μg/ml, Pim-2: 0.2 μg/ml, Pim-3: 0.2 μg/ml, FLT3: 0.1 μg/ml) with test compounds. The final reaction concentrations of ATP were 400, 5, 100, and 500 µM for Pim-1, 2, 3, and FLT3 respectively. After 1 h incubation, reactions were developed and terminated, and fluorescence ratios were calculated following the manufacturer’s protocol.

Pim-2 = biological target: T2, Pim-2 (Homo sapiens, UniProt Q9P1W9); assay: In vitro Pim kinase activity assay (FRET-based Z'-LYTE), Pim-2; type: biochemical; settings: ATP 5 µM; read-out: IC50 values for enzyme activities, Pim-2
T2 construct: purchased Life Technologies; Thermo Fisher Scientific Inc
Protocol: as §2

Pim-3 = biological target: T3, Pim-3 (Homo sapiens, UniProt Q86V86); assay: In vitro Pim kinase activity assay (FRET-based Z'-LYTE), Pim-3; type: biochemical; settings: ATP 100 µM; read-out: IC50 values for enzyme activities, Pim-3
T3 construct: purchased Merck KgaA
Protocol: as §2

Pim-1 [3] = biological target: T1, Pim-1; assay: Binding detection based on SPR platform (BIACORE T200); settings: 6.5, 13, 25, or 50 µM
Protocol: The interactions between test compounds and Pim-1 were detected by surface plasmon resonance platform BIACORE T200 (GE Healthcare Life Sciences, Buckinghamshire, England). Pim-1 was diluted to 20 μg/ml in 10 mM acetate buffer (pH 5.0), and then immobilized as a ligand in the N-hydroxysuccinimide/ethyl 3-(3-dimethylaminopropyl) carbodiimide-pre-activated CM5 sensor chip, following blocking by ethanolamine. Test compounds were diluted at 6.5, 13, 25, or 50 µM in a vehicle of 5% DMSO (v/v) in phosphate buffered saline (PBS). The dilutions were injected as analyte flow liquid phase with PBS containing 5% DMSO (v/v) as running buffer at a constant flow rate of 30 μL/min. A 2-min association time was set. The data were collected by Biacore Control Software. Kinetics and affinity parameters were evaluated with the Langmuir model (1:1) using BIA evaluation software.

[4] = system: phosphorylation level of 4E-BP in PC-3 tumors; assay: Pharmacodynamics study in PC-3 xenograft tumors (phospho-4E-BP immunoblot); type: in vivo, mice; settings: single dose 187.5 mg/kg
Protocol: (§3) Cells were plated overnight and then treated with test compounds for 4 hours. Then, the cells were lyzed in solubilization buffer [10 mM Tris-HCl (pH7.4), 0.1% (w/v) NP-40, 0.1% (w/v) sodium deoxycholate, 0.1% (w/v) SDS, 0.15 M NaCl, 1 mM EDTA, 10 µM aprotinin] with phosphatase inhibitor cocktails (Nakarai Tesque, Kyoto, Japan), and subjected to SDS-PAGE using 15% (w/v) gels under reducing conditions. The separated proteins were electrotransferred to Immobilon transfer membranes (Merck Millipore, Darmstadt, Germany). Then, each membrane was reacted with primary antibodies, which were subsequently complexed with appropriate horseradish peroxidase-conjugated secondary antibodies. Signals were detected using the ECL Western Blotting Detection System (GE Healthcare Life Sciences) and protein expression was quantified with a LAS-3000 Luminescent Image Analyzer (GE Healthcare Life Sciences). The protein bands were quantified using ImageQuant TL software (GE Healthcare Life Sciences).
Tumors were resected 1, 2, 6, or 24 h after injection and lyzed for immunoblot analysis.

FLT3 = biological target: T4, FLT3 (Homo sapiens, UniProt P36888); assay: FLT3 kinase activity assay (FRET-based Z'-LYTE); type: biochemical; settings: ATP 500 µM; read-out: IC50 against FLT3 kinase
T4 construct: purchased Life Technologies; Thermo Fisher Scientific Inc
T4 sequence (P36888 27-993): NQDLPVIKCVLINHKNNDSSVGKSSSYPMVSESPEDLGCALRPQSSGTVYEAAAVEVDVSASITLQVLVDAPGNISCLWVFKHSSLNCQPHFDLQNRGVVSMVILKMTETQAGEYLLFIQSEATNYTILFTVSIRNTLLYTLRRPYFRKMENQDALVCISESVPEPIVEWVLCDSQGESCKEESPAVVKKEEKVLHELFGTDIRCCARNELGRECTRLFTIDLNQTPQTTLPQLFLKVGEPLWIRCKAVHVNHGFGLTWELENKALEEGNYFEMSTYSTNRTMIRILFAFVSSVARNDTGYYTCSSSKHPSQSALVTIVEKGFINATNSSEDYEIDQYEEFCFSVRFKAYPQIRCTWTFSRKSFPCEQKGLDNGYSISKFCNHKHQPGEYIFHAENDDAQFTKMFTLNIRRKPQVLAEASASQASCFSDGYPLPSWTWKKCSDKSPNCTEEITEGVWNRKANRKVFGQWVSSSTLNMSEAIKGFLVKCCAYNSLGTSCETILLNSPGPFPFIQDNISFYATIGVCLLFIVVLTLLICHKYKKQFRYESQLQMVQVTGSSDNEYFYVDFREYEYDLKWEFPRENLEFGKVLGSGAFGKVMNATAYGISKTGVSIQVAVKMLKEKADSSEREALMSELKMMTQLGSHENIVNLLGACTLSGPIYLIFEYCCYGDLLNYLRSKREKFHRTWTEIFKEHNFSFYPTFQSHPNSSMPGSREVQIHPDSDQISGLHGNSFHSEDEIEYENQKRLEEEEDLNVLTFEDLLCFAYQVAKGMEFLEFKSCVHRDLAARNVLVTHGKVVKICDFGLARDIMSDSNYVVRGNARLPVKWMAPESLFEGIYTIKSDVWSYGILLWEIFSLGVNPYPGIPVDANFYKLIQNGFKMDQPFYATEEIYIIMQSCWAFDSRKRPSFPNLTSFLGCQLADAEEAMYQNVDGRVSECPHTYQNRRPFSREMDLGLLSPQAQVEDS
Protocol: as §2

cancer cell lines = assay: Cytotoxicity assay for cell survival (cancer cell proliferation); type: cell-based; settings: 96 hours; read-out: IC50 for proliferation of a broad spectrum of cancer cell lines (range)
Text: We obtained colon cancer HCT116 and HT-29 cells, prostate cancer PC-3, DU145, and LNCaP cells, lung cancer NCI-H460 and NCI-H522 cells, breast cancer MDA-MB-231 cells, AML MV-4-11 cells, and chronic myeloid leukemia (CML) K-562, MEG-01, and KU812 cells from American Type Culture Collection (Manassas, VA, United States); stomach cancer MKN45 cells from the Health Science Research Resources Bank (Osaka, Japan); pancreatic cancer AsPC-1 and MIA PaCa-2, and lung cancer A549 cells from DS Pharma Biomedical (Osaka, Japan). All cell lines were cultured in RPMI1640 medium (Life Technologies; Thermo Fisher Scientific Inc.) with 10% (v/v) fetal bovine serum (FBS; Sigma-Aldrich; Merck KgaA) at 37°C in 5% CO2.
Cells were seeded in 96-well plates and test compounds were added to the cultures at several concentrations.

PC-3 = assay: Immunoblot analysis of phosphorylation of Pim kinase substrates, PC-3; type: cell-based; settings: PC-3, 4 h
Protocol: as §3

[5] = experiment not completed (data not shown)

T2 sequence (Q9P1W9 whole entry): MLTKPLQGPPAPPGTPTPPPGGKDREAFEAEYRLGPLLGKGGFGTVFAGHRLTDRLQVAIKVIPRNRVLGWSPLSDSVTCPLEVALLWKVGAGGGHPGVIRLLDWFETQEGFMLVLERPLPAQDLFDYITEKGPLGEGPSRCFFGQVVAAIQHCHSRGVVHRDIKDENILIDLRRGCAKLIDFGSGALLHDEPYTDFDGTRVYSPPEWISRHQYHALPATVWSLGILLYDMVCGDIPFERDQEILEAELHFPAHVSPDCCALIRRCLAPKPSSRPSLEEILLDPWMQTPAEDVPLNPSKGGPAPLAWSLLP
T1 sequence (P11309 whole entry): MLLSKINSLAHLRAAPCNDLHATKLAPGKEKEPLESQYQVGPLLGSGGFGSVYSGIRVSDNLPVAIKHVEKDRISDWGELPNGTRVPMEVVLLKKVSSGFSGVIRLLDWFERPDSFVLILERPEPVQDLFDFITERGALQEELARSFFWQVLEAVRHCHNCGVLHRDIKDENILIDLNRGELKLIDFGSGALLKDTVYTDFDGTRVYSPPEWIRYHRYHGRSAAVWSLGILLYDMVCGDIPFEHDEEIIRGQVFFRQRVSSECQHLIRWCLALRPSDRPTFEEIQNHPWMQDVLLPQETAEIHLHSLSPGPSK

N[C@@H]1CCCN(c2c(/C=C3\SC(=O)NC3=O)cccc2-c2ccccc2)C1 [AZD1208]
Reason for termination of clinical study ([1]; ref NCT01489722): lack of clinical response

CN1CCC(CNc2ccc3ncc(-c4cccc(OC(F)(F)F)c4)n3n2)CC1 [SGI-1776]
Reason for termination of clinical study ([1]; ref NCT00848601): dose-limiting toxicity

CN1CCN(c2ccc(-c3cnc4ccc(/C=C5\SC(=O)NC5=O)nn34)cc2)CC1.CS(=O)(=O)O [YPC-21440 MsOH, (Z)-5-([3-{4-(4-methylpiperazin-1-yl)phenyl}imidazo[1,2-b]pyridazin-6-yl]methylene)thiazolidine-2,4-dione methanesulfonate]
TGI (tumor growth inhibition) (MV-4-11 xenograft model; 62.5 mg/kg/dose): 26%
Body weight decrease (as much as) compared with day 1 (MV-4-11 xenograft model; 125 mg/kg/dose): 5.2 ± 10%
TGI (tumor growth inhibition) (MV-4-11 xenograft model; 125 mg/kg/dose): 60%
Body weight decrease (as much as) compared with day 1 (MV-4-11 xenograft model; 187.5 mg/kg/dose): 7.1 ± 21%
TGI (tumor growth inhibition) (MV-4-11 xenograft model; 187.5 mg/kg/dose): 77%
Body weight loss (PC-3 xenograft model; [5]): serious body weight loss
Tumor growth (PC-3 xenograft model; [5]): tended to be suppressed

CCCCCN1CCN(c2ccc(-c3cnc4ccc(/C=C5\SC(=O)NC5=O)nn34)cc2F)CC1 [YPC-21813, (Z)-5-([3-{4-(4-pentylpiperazin-1-yl)-3-fluorophenyl}imidazo[1,2-b]pyridazin-6-yl]methylene)thiazolidine-2,4-dione]
IC50 (Pim-1 [2]): 430 nM
IC50 (Pim-2): 490 nM
IC50 (Pim-3): 360 nM

CCCCCCCCCCN1CCN(c2ccc(-c3cnc4ccc(/C=C5\SC(=O)NC5=O)nn34)cc2F)CC1 [YPC-21814, (Z)-5-([3-{4-(4-decylpiperazin-1-yl)-3-fluorophenyl}imidazo[1,2-b]pyridazin-6-yl]methylene)thiazolidine-2,4-dione]
IC50 (Pim-1 [2]): > 1800 nM
IC50 (Pim-2): > 1800 nM
IC50 (Pim-3): > 1800 nM
Binding to Pim-1 by SPR (Biacore) (Pim-1 [3]): did not bind to Pim-1

CCN1CCN(c2ccc(-c3cnc4ccc(/C=C5\SC(=O)NC5=O)nn34)cc2F)CC1.CS(=O)(=O)O [YPC-21817 MsOH, (Z)-5-([3-{4-(4-ethylpiperazin-1-yl)-3-fluorophenyl}imidazo[1,2-b]pyridazin-6-yl]methylene)thiazolidine-2,4-dione methanesulfonate]
TGI (tumor growth inhibition) (MV-4-11 xenograft model; 62.5 mg/kg/dose): 20%
TGI (tumor growth inhibition) (MV-4-11 xenograft model; 125 mg/kg/dose): 39%
TGI (tumor growth inhibition) (MV-4-11 xenograft model; 187.5 mg/kg/dose): 70%
Serious decrease in body weight (MV-4-11 xenograft model; evaluation period): not observed
TGI (tumor growth inhibition) (PC-3 xenograft model; 62.5 mg/kg/dose): 0.92%
TGI (tumor growth inhibition) (PC-3 xenograft model; 125 mg/kg/dose): 8.4%
TGI (tumor growth inhibition) (PC-3 xenograft model; 187.5 mg/kg/dose): 48%
Serious decrease in body weight (PC-3 xenograft model; evaluation period): not observed
Phosphorylation level of 4E-BP in tumors ([4]; 1, 2, and 6 hours after administration): signigficantly decreased
Phosphorylation level of 4E-BP in tumors ([4]; 24 hours after administration): almost completely recovered

CCN1CCN(c2ccc(-c3cnc4ccc(/C=C5\SC(=O)NC5=O)nn34)cc2F)CC1 [YPC-21817, (Z)-5-([3-{4-(4-ethylpiperazin-1-yl)-3-fluorophenyl}imidazo[1,2-b]pyridazin-6-yl]methylene)thiazolidine-2,4-dione]
IC50 (FLT3): 2000 nM
IC50 (cancer cell lines): 24 to 650 nM
Phosphorylation levels of Bad, 4EBP, and p21 (PC-3): decreased

CN1CCN(c2ccc(-c3cnc4ccc(/C=C5\SC(=O)NC5=O)nn34)cc2C(C)(C)C)CC1 [YPC-21867, (Z)-5-([3-{3-(tert-butyl)-4-(4-methylpiperazin-1-yl)phenyl}imidazo[1,2-b]pyridazin-6-yl]methylene)thiazolidine-2,4-dione]
IC50 (Pim-1 [2]): 120 nM
IC50 (Pim-2): 190 nM
IC50 (Pim-3): 540 nM
